PMC10625584, “Deciphering triterpenoid saponin biosynthesis by leveraging transcriptome response to methyl jasmonate elicitation in Saponaria vaccaria” (Nature Communications, 2023)

System: T1, SvCslG
T1 construct: gene CslG; codon-optimized CDS in pESC-URA; S. cerevisiae INVSc1 microsomal protein
Test: LC-MS assay with yeast microsomal protein, Michaelis-Menten fit
Type: biochemical, Gypsophila vaccaria
Conditions: 20 mM Tris-HCl pH 8.0, 30 mM Mg2+, 30 °C

Row | SMILES | Km (UDP-GlcA co-substrate) [µM] | Km (quillaic acid co-substrate) [µM]
1 | CC1(C)CC[C@]2(C(=O)O)[C@H](O)C[C@]3(C)C(=CC[C@@H]4[C@@]5(C)CC[C@H](O)[C@@](C)(C=O)[C@@H]5CC[C@]43C)[C@@H]2C1 [QA, quillaic acid] | 3.13 | 
2 | O=C(O)[C@H]1O[C@H](OP(=O)(O)OP(=O)(O)OC[C@H]2O[C@@H](n3ccc(=O)[nH]c3=O)[C@H](O)[C@@H]2O)[C@H](O)[C@@H](O)[C@@H]1O [UDP-GlcA] |  | 65
